Molecular target: rat TRPV1 (Rattus norvegicus, UniProt O35433)
Assay: competitive binding assay with [3H]RTX, rat TRPV1 expressed in CHO cells
Settings: rTRPV1/CHO; for fold less potent than parent 3: receptor activity (binding affinity and antagonism), relative to 3; for fold reduction in binding affinity and antagonism compared to 50: relative to 50

Sequence of rat TRPV1 (O35433 whole entry): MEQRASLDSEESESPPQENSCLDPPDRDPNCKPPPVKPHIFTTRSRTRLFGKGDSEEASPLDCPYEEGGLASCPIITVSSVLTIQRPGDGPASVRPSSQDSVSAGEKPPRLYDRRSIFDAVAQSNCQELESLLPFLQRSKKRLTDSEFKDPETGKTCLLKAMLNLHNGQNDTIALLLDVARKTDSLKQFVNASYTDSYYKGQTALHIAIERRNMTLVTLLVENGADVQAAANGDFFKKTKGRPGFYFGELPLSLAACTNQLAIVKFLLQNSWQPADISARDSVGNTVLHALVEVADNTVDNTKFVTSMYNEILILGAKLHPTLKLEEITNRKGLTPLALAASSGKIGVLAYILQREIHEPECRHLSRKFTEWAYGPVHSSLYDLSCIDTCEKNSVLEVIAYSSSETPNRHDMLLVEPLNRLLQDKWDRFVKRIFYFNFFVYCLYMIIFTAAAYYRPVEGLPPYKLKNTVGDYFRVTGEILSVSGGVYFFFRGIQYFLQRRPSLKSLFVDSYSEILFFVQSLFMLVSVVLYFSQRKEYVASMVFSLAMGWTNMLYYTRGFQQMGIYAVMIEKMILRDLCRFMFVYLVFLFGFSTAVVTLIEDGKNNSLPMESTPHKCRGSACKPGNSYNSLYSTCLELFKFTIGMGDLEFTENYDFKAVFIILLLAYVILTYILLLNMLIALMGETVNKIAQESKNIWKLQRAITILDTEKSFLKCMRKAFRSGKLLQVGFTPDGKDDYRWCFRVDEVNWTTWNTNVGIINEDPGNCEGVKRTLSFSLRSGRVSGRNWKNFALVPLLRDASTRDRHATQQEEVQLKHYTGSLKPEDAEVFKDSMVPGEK

CC(C(=O)NCc1ccc(I)cc1)c1ccc(NS(C)(=O)=O)c(F)c1 (stereo not shown) [compound 24, 2-(3-Fluoro-4-methanesulfonylamino-phenyl)-N-(4-iodo-benzyl)-propionamide]
fold less potent than parent 3: 10 fold

Cc1ccc(CCCNC(=O)C(C)c2ccc(NS(C)(=O)=O)c(F)c2)cc1C (stereo not shown) [compound 40, N-[3-(3,4-Dimethylphenyl)propyl]-2-[3-fluoro-4-(methylsulfonylamino)phenyl]propionamide]
fold less potent than parent 3: ca. 10 fold

CC(C(=O)NCC=C1c2ccccc2CCc2ccccc21)c1ccc(NS(C)(=O)=O)c(F)c1 (stereo not shown) [compound 59, N-[2-(10,11-Dihydro-5H-dibenzo[a,d]cyclohepten-5-yliden)ethyl]-2-[3-fluoro-4-(methylsulfonylamino)phenyl]propionamide]
fold reduction in binding affinity and antagonism compared to 50: 5–10 fold

CC(C(=O)NCC=C1c2ccccc2C=Cc2ccccc21)c1ccc(NS(C)(=O)=O)c(F)c1 (stereo not shown) [compound 60, N-[2-Dibenzo[a,d]cyclohepten-5-ylidene-ethyl]-2-(3-fluoro-4-methylsulfonylamino-phenyl)-propionamide]
fold reduction in binding affinity and antagonism compared to 50: 5–10 fold

From publication PMC6988731 (Bioorganic & medicinal chemistry, 2011)
